Measurements reported in patent publication US9376391B2, “Difluoromethyl-nicotinic-tetrahydronaphthyl carboxamides as fungicides” (BAYER CROPSCIENCE AKTIENGESELLSCHAFT, priority 2012, dated 2016).

How the values were obtained:
Pyrenophora teres = experiment: In vivo preventive test on Pyrenophora teres (net blotch on barley)
Sphaerotheca fuliginea = experiment: In vivo preventive test on Sphaerotheca fuliginea (powdery mildew on cucurbits)
How it was run: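 Gherkin plants at Z11 cotyledon stage were sprayed with compound in acetone/tween/DMSO/water. After 24 h they were inoculated with S. fuliginea spores (100 000 spores per ml) and incubated at about 20° C and 70-80% RH. Percent efficacy versus solvent-treated controls was scored 12 days post-inoculation.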

[1] = dose 100 ppm of active ingredient, comparison with known compounds

SMILES: CC1CC(C)(C)c2cccc(NC(=O)c3cccnc3C(F)F)c21 (stereo not drawn) [Example 1]
- protection (in words) (Pyrenophora teres; [1]): total protection
- Efficacy (Pyrenophora teres; dose 100 ppm, comparison with known compounds, same conditions): 100%
- Eff. % (Pyrenophora teres; dose 500 ppm, barley, spray, graded 14 days after contamination vs control plants): 100%
- Eff. % (Sphaerotheca fuliginea; 500 ppm, preventive spray, gherkin plants, grading 12 days after contamination): 100%
- protection (in words) (Sphaerotheca fuliginea; [1]): total protection
- Efficacy (Sphaerotheca fuliginea; dose 100 ppm, comparison with prior-art compounds, gherkin plants, grading 12 days after contamination): 100%
